Conditions: 293.15 K, Liquid, Vibrating tube method

CCCCCCCCCC [decane]
Conditions	mass density [kg/m3]
12325 kPa	739.1
12342 kPa	739.1
12359 kPa	739
12381 kPa	739
12401 kPa	739.1
12417 kPa	739
12437 kPa	739.1
12454 kPa	739
12476 kPa	739.3
12499 kPa	739.2
12516 kPa	739.1
12536 kPa	739.1
12556 kPa	739.1
12576 kPa	739.1
12593 kPa	739.2
12610 kPa	739.3
12633 kPa	739.3
12653 kPa	739.2
12677 kPa	739.2
12703 kPa	739.2
12720 kPa	739.2
12744 kPa	739.3
12759 kPa	739.2
12785 kPa	739.3
12809 kPa	739.3
12827 kPa	739.3
12851 kPa	739.3
12872 kPa	739.5
12896 kPa	739.3
12917 kPa	739.5
12939 kPa	739.5
12957 kPa	739.4
12978 kPa	739.4
12999 kPa	739.5
13018 kPa	739.5
13039 kPa	739.5
13058 kPa	739.5
13080 kPa	739.6
13098 kPa	739.5
13127 kPa	739.6
13152 kPa	739.6
13172 kPa	739.7
13197 kPa	739.5
13216 kPa	739.6
13235 kPa	739.6
13251 kPa	739.7
13274 kPa	739.7
13290 kPa	739.7
13309 kPa	739.7
13329 kPa	739.6
13359 kPa	739.6
13385 kPa	739.8
13408 kPa	739.7
13435 kPa	739.7
13459 kPa	739.8
13479 kPa	739.8
13501 kPa	740
13525 kPa	739.9
13548 kPa	739.8
13569 kPa	740
13586 kPa	739.9
13609 kPa	739.9
13626 kPa	739.9
13644 kPa	739.8
13667 kPa	740
13686 kPa	740
13701 kPa	740
13722 kPa	739.9
13745 kPa	740
13766 kPa	739.9
13784 kPa	739.9
13802 kPa	740
13820 kPa	740
13844 kPa	740
13862 kPa	740.1
13881 kPa	739.9
13903 kPa	740.2
13927 kPa	740.1
13943 kPa	740.1
13967 kPa	740.3
13989 kPa	740.1
14008 kPa	740.2
14024 kPa	740.3
14044 kPa	740.1
14061 kPa	740.2
14081 kPa	740.3
14098 kPa	740.3
14121 kPa	740.2
14139 kPa	740.3
14151 kPa	740.3
14167 kPa	740.2
14181 kPa	740.4
14194 kPa	740.3
14205 kPa	740.2
14220 kPa	740.4
14232 kPa	740.3
14245 kPa	740.4
14257 kPa	740.4
14269 kPa	740.2
14281 kPa	740.3
14297 kPa	740.4
14314 kPa	740.4
14325 kPa	740.4
14339 kPa	740.4
14352 kPa	740.4
14363 kPa	740.4
14376 kPa	740.4
14389 kPa	740.4
14404 kPa	740.4
14418 kPa	740.4
14427 kPa	740.5
14443 kPa	740.4
14458 kPa	740.5
14471 kPa	740.4
14483 kPa	740.6
14500 kPa	740.6
14517 kPa	740.5
14529 kPa	740.4
14542 kPa	740.6
14554 kPa	740.4
14566 kPa	740.6
14580 kPa	740.6
14592 kPa	740.5
14605 kPa	740.5
14617 kPa	740.6
14637 kPa	740.6
14650 kPa	740.7
14664 kPa	740.6
14676 kPa	740.7
14691 kPa	740.6
14706 kPa	740.7
14717 kPa	740.7
14735 kPa	740.6
14753 kPa	740.7
14765 kPa	740.7
14779 kPa	740.7
14791 kPa	740.7
14807 kPa	740.7
14821 kPa	740.7
14833 kPa	740.8
14847 kPa	740.7
14859 kPa	740.7
14877 kPa	740.9
14893 kPa	740.7
14910 kPa	740.8
14926 kPa	740.8
14943 kPa	740.9
14959 kPa	740.8
14975 kPa	740.9
14992 kPa	740.9
15008 kPa	740.8
15023 kPa	740.8
15039 kPa	740.9
15050 kPa	740.9
15066 kPa	740.9
15087 kPa	740.9
15102 kPa	740.9
15115 kPa	741
15129 kPa	740.8
15143 kPa	741
15156 kPa	740.9
15175 kPa	741
15192 kPa	741
15209 kPa	740.9
15224 kPa	741
15236 kPa	741
15251 kPa	741.2
15270 kPa	741.1
15288 kPa	741.1
15305 kPa	741.1
15317 kPa	741.1
15339 kPa	741.1
15352 kPa	741
15365 kPa	741.1
15382 kPa	741.1
15393 kPa	741.1
15408 kPa	741.2
15428 kPa	741.1
15443 kPa	741.2
15454 kPa	741
15470 kPa	741.2
15485 kPa	741.2
15503 kPa	741.2
15519 kPa	741.2
15539 kPa	741.2
15556 kPa	741.1
15572 kPa	741.2
15588 kPa	741.1
15604 kPa	741.4
15622 kPa	741.2
15644 kPa	741.2
15658 kPa	741.2
15676 kPa	741.3
15694 kPa	741.4
15710 kPa	741.3
15722 kPa	741.3
15735 kPa	741.3
15751 kPa	741.4
15769 kPa	741.4
15792 kPa	741.3
15809 kPa	741.5
15827 kPa	741.3
15843 kPa	741.3
15857 kPa	741.5
15872 kPa	741.5
15888 kPa	741.4
15909 kPa	741.5
15925 kPa	741.5
15942 kPa	741.5
15959 kPa	741.5
15974 kPa	741.5
15989 kPa	741.5
16007 kPa	741.6
16024 kPa	741.5
16039 kPa	741.6
16056 kPa	741.5
16073 kPa	741.6
16093 kPa	741.6
16108 kPa	741.6
16128 kPa	741.6
16142 kPa	741.6
16167 kPa	741.7
16183 kPa	741.8
16198 kPa	741.7
16215 kPa	741.7
16233 kPa	741.7
16251 kPa	741.8
16267 kPa	741.8
16282 kPa	741.7
16298 kPa	741.7
16314 kPa	741.7
16332 kPa	741.6
16345 kPa	741.8
16369 kPa	741.8
16390 kPa	741.8
16405 kPa	741.8
16426 kPa	741.8
16442 kPa	741.9
16464 kPa	741.8
16484 kPa	741.9
16503 kPa	741.9
16517 kPa	741.9
16533 kPa	741.9
16557 kPa	741.9
16569 kPa	741.9
16584 kPa	741.8
16597 kPa	741.9
16615 kPa	741.9
16628 kPa	742
16646 kPa	742
16662 kPa	742.1
16681 kPa	742
16694 kPa	742
16705 kPa	742.1
16717 kPa	742
16728 kPa	742
16745 kPa	742.2
16761 kPa	742
16772 kPa	742.1
16786 kPa	742
16800 kPa	742
16814 kPa	742
16828 kPa	742.2
16842 kPa	742
16860 kPa	742.1
16874 kPa	742.1
16892 kPa	742.1
16905 kPa	742.1
16923 kPa	742.2
16935 kPa	742.1
16956 kPa	742.1
16972 kPa	742.3
16986 kPa	742.2
